# Data taken from PubChem BioAssay (NCI).
#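 Protocol summary: plate cells (96-well), add compound at 5 concentrations, incubate 48 h, interpolate endpoints linearly. Abbreviation: GI50, concentration required for 50% inhibition of growth. TGI marks complete inhibition of growth.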
# How the values were obtained:
# Assay in all cases: inhibition of tumour cell growth, NCI panel, 48 h
# UACC-62 melanoma = tested on: UACC-62 melanoma
# LOX IMVI melanoma = tested on: LOX IMVI melanoma
# SK-MEL-5 melanoma = tested on: SK-MEL-5 melanoma
# MOLT-4 leukemia = tested on: MOLT-4 leukemia
# HOP-62 NSCLC = tested on: HOP-62 NSCLC
# OVCAR-5 ovarian = tested on: OVCAR-5 ovarian
# MCF7 breast = tested on: MCF7 breast
# COLO 205 colon = tested on: COLO 205 colon
# SNB-19 CNS = tested on: SNB-19 CNS
# OVCAR-3 ovarian = tested on: OVCAR-3 ovarian
# MDA-MB-435 = tested on: MDA-MB-435
# MALME-3M melanoma = tested on: MALME-3M melanoma
# 786-0 renal = tested on: 786-0 renal
# DU-145 prostate = tested on: DU-145 prostate
# HOP-92 NSCLC = tested on: HOP-92 NSCLC
# SK-MEL-28 melanoma = tested on: SK-MEL-28 melanoma
# KM12 colon = tested on: KM12 colon
# OVCAR-4 ovarian = tested on: OVCAR-4 ovarian
# MDA-MB-231 breast = tested on: MDA-MB-231 breast
# K-562 leukemia = tested on: K-562 leukemia
# A498 renal = tested on: A498 renal
# SK-MEL-2 melanoma = tested on: SK-MEL-2 melanoma
# PC-3 prostate = tested on: PC-3 prostate
# SF-539 CNS = tested on: SF-539 CNS
# HS 578T breast = tested on: HS 578T breast
# NCI-H226 lung = tested on: NCI-H226 lung
# OVCAR-8 ovarian = tested on: OVCAR-8 ovarian
# HCC-2998 colon = tested on: HCC-2998 colon
# NCI-H460 lung = tested on: NCI-H460 lung
# RPMI-8226 leukemia = tested on: RPMI-8226 leukemia
# HCT-15 colon = tested on: HCT-15 colon
# SNB-75 CNS = tested on: SNB-75 CNS
# NCI-H23 lung = tested on: NCI-H23 lung
# SK-OV-3 ovarian = tested on: SK-OV-3 ovarian
# CCRF-CEM leukemia = tested on: CCRF-CEM leukemia
# SF-268 CNS = tested on: SF-268 CNS
# U251 CNS = tested on: U251 CNS
# UO-31 renal = tested on: UO-31 renal
# M14 melanoma = tested on: M14 melanoma
# EKVX NSCLC = tested on: EKVX NSCLC
# HL-60(TB) leukemia = tested on: HL-60(TB) leukemia
# A549 NSCLC = tested on: A549 NSCLC
# ACHN renal = tested on: ACHN renal
# SF-295 CNS = tested on: SF-295 CNS
# UACC-257 melanoma = tested on: UACC-257 melanoma
# NCI/ADR-RES ovarian = tested on: NCI/ADR-RES ovarian
# HT29 colon = tested on: HT29 colon
# NCI-H522 lung = tested on: NCI-H522 lung
# T-47D breast = tested on: T-47D breast
# HCT-116 colon = tested on: HCT-116 colon
# SN12C renal = tested on: SN12C renal
# SW-620 colon = tested on: SW-620 colon
# TK-10 renal = tested on: TK-10 renal
# BT-549 breast = tested on: BT-549 breast
# RXF 393 renal = tested on: RXF 393 renal
# IGROV1 ovarian = tested on: IGROV1 ovarian
smiles,measurement,setting,value
CC(=O)c1cc2c(c(O)c1C)C(=O)C(=O)c1c(O)cccc1-2,GI50,UACC-62 melanoma,164 nM
same,TGI,UACC-62 melanoma,354 nM
same,GI50,LOX IMVI melanoma,53.9 nM
same,TGI,LOX IMVI melanoma,101 nM
same,GI50,SK-MEL-5 melanoma,56.5 nM
same,TGI,SK-MEL-5 melanoma,105 nM
same,GI50,MOLT-4 leukemia,348 nM
same,TGI,MOLT-4 leukemia,1440 nM
same,GI50,HOP-62 NSCLC,175 nM
same,TGI,HOP-62 NSCLC,365 nM
same,GI50,OVCAR-5 ovarian,526 nM
same,TGI,OVCAR-5 ovarian,1010 nM
same,GI50,MCF7 breast,57.6 nM
same,TGI,MCF7 breast,134 nM
same,GI50,COLO 205 colon,342 nM
same,TGI,COLO 205 colon,872 nM
same,GI50,SNB-19 CNS,163 nM
same,TGI,SNB-19 CNS,345 nM
same,GI50,OVCAR-3 ovarian,76.8 nM
same,TGI,OVCAR-3 ovarian,280 nM
same,GI50,MDA-MB-435,56.3 nM
same,TGI,MDA-MB-435,107 nM
same,GI50,MALME-3M melanoma,65.4 nM
same,TGI,MALME-3M melanoma,139 nM
same,GI50,786-0 renal,421 nM
same,TGI,786-0 renal,897 nM
same,GI50,DU-145 prostate,56.8 nM
same,TGI,DU-145 prostate,102 nM
same,GI50,HOP-92 NSCLC,906 nM
same,TGI,HOP-92 NSCLC,1880 nM
same,GI50,SK-MEL-28 melanoma,163 nM
same,TGI,SK-MEL-28 melanoma,365 nM
same,GI50,KM12 colon,411 nM
same,TGI,KM12 colon,1740 nM
same,GI50,OVCAR-4 ovarian,199 nM
same,TGI,OVCAR-4 ovarian,636 nM
same,GI50,MDA-MB-231 breast,277 nM
same,TGI,MDA-MB-231 breast,2260 nM
same,GI50,K-562 leukemia,281 nM
same,TGI,K-562 leukemia,1050 nM
same,GI50,A498 renal,962 nM
same,TGI,A498 renal,2380 nM
same,GI50,SK-MEL-2 melanoma,272 nM
same,TGI,SK-MEL-2 melanoma,922 nM
same,GI50,PC-3 prostate,510 nM
same,TGI,PC-3 prostate,2030 nM
same,GI50,SF-539 CNS,150 nM
same,TGI,SF-539 CNS,285 nM
same,GI50,HS 578T breast,248 nM
same,TGI,HS 578T breast,1300 nM
same,GI50,NCI-H226 lung,554 nM
same,TGI,NCI-H226 lung,1050 nM
same,GI50,OVCAR-8 ovarian,308 nM
same,TGI,OVCAR-8 ovarian,936 nM
same,GI50,HCC-2998 colon,330 nM
same,TGI,HCC-2998 colon,776 nM
same,GI50,NCI-H460 lung,460 nM
same,TGI,NCI-H460 lung,1090 nM
same,GI50,RPMI-8226 leukemia,615 nM
same,TGI,RPMI-8226 leukemia,1900 nM
same,GI50,HCT-15 colon,113 nM
same,TGI,HCT-15 colon,302 nM
same,GI50,SNB-75 CNS,153 nM
same,TGI,SNB-75 CNS,301 nM
same,GI50,NCI-H23 lung,66.6 nM
same,TGI,NCI-H23 lung,154 nM
same,GI50,SK-OV-3 ovarian,565 nM
same,TGI,SK-OV-3 ovarian,1120 nM
same,GI50,CCRF-CEM leukemia,460 nM
same,TGI,CCRF-CEM leukemia,> 100 µM
same,GI50,SF-268 CNS,133 nM
same,TGI,SF-268 CNS,471 nM
same,GI50,U251 CNS,247 nM
same,TGI,U251 CNS,659 nM
same,GI50,UO-31 renal,247 nM
same,TGI,UO-31 renal,742 nM
same,GI50,M14 melanoma,60.5 nM
same,TGI,M14 melanoma,121 nM
same,GI50,EKVX NSCLC,673 nM
same,TGI,EKVX NSCLC,3.36 µM
same,GI50,HL-60(TB) leukemia,89.5 nM
same,TGI,HL-60(TB) leukemia,271 nM
same,GI50,A549 NSCLC,565 nM
same,TGI,A549 NSCLC,1240 nM
same,GI50,ACHN renal,289 nM
same,TGI,ACHN renal,1120 nM
same,GI50,SF-295 CNS,290 nM
same,TGI,SF-295 CNS,763 nM
same,GI50,UACC-257 melanoma,188 nM
same,TGI,UACC-257 melanoma,366 nM
same,GI50,NCI/ADR-RES ovarian,360 nM
same,TGI,NCI/ADR-RES ovarian,1390 nM
same,GI50,HT29 colon,319 nM
same,TGI,HT29 colon,1490 nM
same,GI50,NCI-H522 lung,281 nM
same,TGI,NCI-H522 lung,888 nM
same,GI50,T-47D breast,554 nM
same,TGI,T-47D breast,3.17 µM
same,GI50,HCT-116 colon,216 nM
same,TGI,HCT-116 colon,506 nM
same,GI50,SN12C renal,59.2 nM
same,TGI,SN12C renal,117 nM
same,GI50,SW-620 colon,120 nM
same,TGI,SW-620 colon,387 nM
same,GI50,TK-10 renal,560 nM
same,TGI,TK-10 renal,1010 nM
same,GI50,BT-549 breast,140 nM
same,TGI,BT-549 breast,274 nM
same,GI50,RXF 393 renal,157 nM
same,TGI,RXF 393 renal,416 nM
same,GI50,IGROV1 ovarian,521 nM
same,TGI,IGROV1 ovarian,1340 nM
